Broadly, the inhibition is the relative decrease from the control value, in per cent.

These results are taken from patent publication EP0378317A2, “Microbial transformation product of L-679,934” (Merck & Co., Inc., priority 1989, dated 1990).

“Also recorded” adds a separate entry of the source. Where two headings read alike, the source gives them in different places.

The test system of one data set is mouse T lymphocytes. In words: T-cell proliferation assay (ionomycin plus PMA induced T-cell stimulation, tritiated thymidine uptake). It is filed as cell-based. The settings on record: for IC50: read-out: IC₅₀. The protocol:
The principle of this assay is to measure the proliferation of mouse T lymphocytes stimulated with the combination of ionomycin plus PMA. A positive sample in this assay will inhibit T-cell proliferation, as indicated by reduced tritiated thymidine uptake. […] Cells were pelleted by centrifugation at 1500 rpm for 8 minutes. Contaminating red cells were removed by treating the pellet with ammonium chloride lysing buffer (GIBCO) for 2 minutes at 4°C. Cold medium was added and cells were again centrifuged at 1500 rpm for 8 minutes. T lymphocytes were then isolated by separation of the cell suspension on nylon wool columns as follows: Nylon wool columns were prepared by packing approximately 4 grams of washed and dried nylon wool into 20 ml plastic syringes. The columns were sterilized by autoclaving at 250°F for 30 minutes. Nylon wool columns were wetted with warm (37°C) culture medium and rinsed with the same medium. Washed spleen cells resuspended in warm medium were slowly applied to the nylon wool. The columns were then incubated in an upright position at 37°C for 1 hour. Non-adherent T lymphocytes were eluted from the columns with warm culture medium and the cell suspensions were spun as above. […] The cell suspension was immediately distributed into 96 well flat-bottom microculture plates (Costar) at 200 µl/well. […] The proliferation of T lymphocytes was assessed by measurement of tritiated thymidine incorporation. After 44 hours of culturing, the cells were pulse-labelled with 2 µCi/well of tritiated thymidine (NEN, Cambridge, MA). After another 4 hours of incubation, cultures were harvested on glass fiber filters using a multiple sample harvester. Radioactivity of filter discs corresponding to individual wells was measured by standard liquid scintillation counting methods (Betacounter). Mean counts per minute of replicate wells were calculated and the results expressed as percent inhibition of tritiated thymidine uptake (proliferation) as follows: [formula]

Data set [1] can be described thus: Physical characteristics of the fermentation product. Conditions: methanol. Format: physicochemical. From the text:
White amorphous powder • 2. […] Molecular weight of 789, as determined by FAB mass spectroscopy and is consistent with the assigned molecular structure in Figure 1.

`C=CC[C@@H]1/C=C(\C)C[C@H](C)C[C@H](OC)[C@H]2O[C@@](O)(C(=O)C(=O)N3CCCC[C@H]3C(=O)O[C@H](/C(C)=C/[C@@H]3CC[C@@H](O)[C@H](OC)C3)[C@H](C)[C@@H](O)CC1=O)[C@H](C)C[C@@H]2OC` [L-679,934]: in the data set on mouse T lymphocytes (Mus musculus, T-lymphocyte, 48 h), the inhibition at 0.01 µg/mL turned out to be 99%.

For the molecule `C=CCC1C=C(C)CC(C)CC(OC)C(O)C2CC(C)C(O)(O2)C(=O)C(=O)N2CCCCC2C(=O)OC(C(C)=CC2CCC(O)C(OC)C2)C(C)C(O)CC1=O` [L-683,519], the IC50 is 2.2 nM in the data set with mouse T lymphocytes (Mus musculus, T-lymphocyte, inhibition of T-cell proliferation, this experiment, same value in molar terms); 1.7 ng/mL with mouse T lymphocytes (Mus musculus, T-lymphocyte, inhibition of T-cell proliferation, this experiment); 2 to 4 nM in the data set on mouse T lymphocytes (Mus musculus, T-lymphocyte, range generally found). Moreover, the inhibition at 0.00058 µg/mL in the data set on mouse T lymphocytes (Mus musculus, T-lymphocyte, L-683,519 0.58 ng/ml, harvest at 48 hours) came out at 0%. For the same molecule, in the data set on mouse T lymphocytes (Mus musculus, T-lymphocyte, L-683,519 0.87 ng/ml, harvest at 48 hours), the inhibition at 0.00087 µg/mL worked out at 0%. Besides, in the data set on mouse T lymphocytes (Mus musculus, T-lymphocyte, L-683,519 1.3 ng/ml, harvest at 48 hours), the inhibition at 0.0013 µg/mL is 30%. The inhibition at 0.0019 µg/mL with mouse T lymphocytes (Mus musculus, T-lymphocyte, L-683,519 1.9 ng/ml, harvest at 48 hours) stood at 57%. Moreover, the inhibition at 0.0029 µg/mL with mouse T lymphocytes (Mus musculus, T-lymphocyte, L-683,519 2.9 ng/ml, harvest at 48 hours) came out at 81%. Moreover, in the data set on mouse T lymphocytes (Mus musculus, T-lymphocyte, L-683,519 4.4 ng/ml, harvest at 48 hours), the inhibition at 0.0044 µg/mL came out at 93%. In addition, the inhibition at 0.0066 µg/mL with mouse T lymphocytes (Mus musculus, T-lymphocyte, L-683,519 6.6 ng/ml, harvest at 48 hours) came to 97%. Further, the inhibition at 0.0099 µg/mL in the data set on mouse T lymphocytes (Mus musculus, T-lymphocyte, L-683,519 9.9 ng/ml, harvest at 48 hours) was determined as 99%. Further, the inhibition at 0.015 µg/mL in the data set with mouse T lymphocytes (Mus musculus, T-lymphocyte, L-683,519 15.0 ng/ml, harvest at 48 hours) worked out at 99%. Further, the inhibition at 0.022 µg/mL in the data set on mouse T lymphocytes (Mus musculus, T-lymphocyte, L-683,519 22.0 ng/ml, harvest at 48 hours) was found to be 99%. The inhibition at 0.033 µg/mL with mouse T lymphocytes (Mus musculus, T-lymphocyte, L-683,519 33.0 ng/ml, harvest at 48 hours) came out at 99%. Further, the inhibition at 0.05 µg/mL in the data set on mouse T lymphocytes (Mus musculus, T-lymphocyte, L-683,519 50.0 ng/ml, ionomycin 250 ng/ml + PMA 10 ng/ml, ³H-thymidine pulse 4 hours, harvest at 48 hours) is 99%. Further, the “Inhibition of proliferation after addition of IL-2” value in the data set with mouse T lymphocytes (addition of 50 units/ml. of recombinant human IL-2) is recorded as 4. Inhibition of proliferation was reversed by the addition of 50 units/ml. of recombinant human IL-2. Besides, the “inhibition of T-cell activation (immunosuppressive activity)” value in the data set with mouse T lymphocytes (result in words) was “positive inhibition of T-cell activation; also recorded: positive immunosuppressive activity”. Also, the Solubility entry in data set [1] is on record as “Solubility in methanol”.
